Measurements as given in patent publication US20250353891A1 (MEDIMMUNE LIMITED, priority 2022, published 2025).
Starred links: 1 amine or outer side, 2 acyl side, 3 side chain; linkers in the order of their positions; H or OH if unused. Non-standard residues stand in square brackets, D forms with d. Residues, ends and D or L forms follow the SMILES beside them. Groups on a side chain read outwards from the residue. *: point of attachment. C20 diacid = O=C(O)CCCCCCCCCCCCCCCCCCC(=O)*; C18 diacid = O=C(O)CCCCCCCCCCCCCCCCC(=O)*; γGlu = O=C(O)[C@H](CCC(=O)[*:2])N[*:1]; αMeF = C[C@](N)(Cc1ccccc1)C(=O)O; AEEA = NCCOCCOCC(=O)O; Aib = CC(C)(N)C(=O)O

Experiments:
[1] = target: human GLP-1 receptor (hGLP-1R) (Homo sapiens, UniProt P43220); assay: cAMP production (HTRF) in CHO cells expressing hGLP-1R; assay type: cell-based; set-up: expressed in transfected cells; conditions: for EC50: Table 6, peptides modified at position 17, cAMP in CHO hGLP-1R cells, geometric mean, read-out: hGLP-1R EC50; for % Relative Potency Ratio: Table 6, % GLP-1R activity relative to GLP-1 / % GlucR activity relative to glucagon
Sequence of human GLP-1 receptor (hGLP-1R) (P43220 24-463): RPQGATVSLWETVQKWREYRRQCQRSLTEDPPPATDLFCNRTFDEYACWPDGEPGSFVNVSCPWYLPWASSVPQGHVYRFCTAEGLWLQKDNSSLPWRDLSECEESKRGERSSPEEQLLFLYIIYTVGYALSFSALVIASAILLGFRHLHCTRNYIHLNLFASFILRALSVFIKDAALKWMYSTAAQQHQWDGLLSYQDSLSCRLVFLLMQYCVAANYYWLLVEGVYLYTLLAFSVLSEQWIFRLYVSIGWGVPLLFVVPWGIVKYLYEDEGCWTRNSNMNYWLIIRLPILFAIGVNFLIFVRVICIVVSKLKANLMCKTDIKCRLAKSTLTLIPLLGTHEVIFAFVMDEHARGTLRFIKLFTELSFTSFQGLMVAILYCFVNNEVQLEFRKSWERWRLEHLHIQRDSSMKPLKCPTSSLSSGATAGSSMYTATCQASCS
Method in brief: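 Read-out: HTRF cAMP (anti-cAMP cryptate donor, cAMP-d2 acceptor in conjugate/lysis buffer), converted to % Delta F and fitted by 4-parameter logistic for EC50. Cell densities were 1×10^5 cells/mL (hGLP-1R) or 2×10^5 cells/mL (hGCGR). Stimulation lasted 30 min at room temperature.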

[2] = target: human glucagon receptor (hGCGR) (Homo sapiens, UniProt P47871); assay: cAMP production (HTRF) in CHO cells expressing hGCGR; assay type: cell-based; set-up: expressed in transfected cells; conditions: Table 6, peptides modified at position 17; cAMP in CHO hGCGR cells; geometric mean; read-out: hGluc-R EC50
Sequence of human glucagon receptor (hGCGR) (P47871 26-477): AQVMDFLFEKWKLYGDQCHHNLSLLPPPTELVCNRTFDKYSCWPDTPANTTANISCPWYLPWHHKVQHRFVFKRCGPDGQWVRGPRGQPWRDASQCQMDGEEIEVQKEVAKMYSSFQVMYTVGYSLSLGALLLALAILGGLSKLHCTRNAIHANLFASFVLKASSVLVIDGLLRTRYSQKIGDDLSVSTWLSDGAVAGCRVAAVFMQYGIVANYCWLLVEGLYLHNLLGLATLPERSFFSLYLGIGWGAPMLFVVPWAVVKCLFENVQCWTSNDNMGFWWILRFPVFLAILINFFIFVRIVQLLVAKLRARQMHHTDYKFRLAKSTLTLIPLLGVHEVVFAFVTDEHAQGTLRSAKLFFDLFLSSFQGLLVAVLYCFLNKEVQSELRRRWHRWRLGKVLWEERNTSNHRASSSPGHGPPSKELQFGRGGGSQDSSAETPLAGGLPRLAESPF
Protocol: Cells were re-suspended in assay buffer at a batch-dependent optimized concentration (typically hGLP-1R cells at 1×10^5 cells/mL, hGCGR cells at 2×10^5 cells/mL).
Cells were added to the assay plate using a multidrop dispenser and incubated at room temperature for 30 minutes before measuring the cAMP level using a cAMP dynamic 2 homogeneous time resolved Fluorescence (HTRF) kit (Cisbio Bioassays #62AM4PEJ) following the two-step protocol as per manufacturer's recommendations. In brief, anti-cAMP cryptate (donor fluorophore) and cAMP-d2 (acceptor fluorophore) were made up separately by diluting each 1 in 20 in conjugate and lysis buffer provided in the kit. Anti-CAMP cryptate was added to all wells of the assay plate, followed by cAMP-d2 added to all wells except non-specific binding (NSB) wells (to which conjugate and lysis buffer was added).
Data was transformed to % Delta F as described in the manufacturer's guidelines and analyzed by 4-parameter logistic fit to determine EC50 values.

SMILES | EC50 [1] | % Relative Potency Ratio [1] | EC50 [2]
CC[C@H](C)[C@H](NC(=O)[C@H](Cc1c[nH]c2ccccc12)NC(=O)[C@H](CCC(N)=O)NC(=O)[C@@H](NC(=O)[C@H](Cc1ccccc1)NC(=O)[C@H](CC(=O)O)NC(=O)[C@H](CCCNC(=N)N)NC(=O)[C@H](C)NC(=O)[C@H](C)NC(=O)[C@H](CCCCNC(=O)COCCOCCNC(=O)COCCOCCNC(=O)CC[C@H](NC(=O)CCCCCCCCCCCCCCCCC(=O)O)C(=O)O)NC(=O)[C@H](CO)NC(=O)[C@H](CC(=O)O)NC(=O)[C@H](CC(C)C)NC(=O)[C@](C)(Cc1ccccc1)NC(=O)[C@H](CCCCN)NC(=O)[C@H](CO)NC(=O)[C@@H](NC(=O)[C@H](CC(=O)O)NC(=O)[C@H](CO)NC(=O)[C@@H](NC(=O)[C@](C)(Cc1ccccc1)NC(=O)[C@H](CO)NC(=O)CNC(=O)[C@H](Cc1c[nH]cn1)NC(=O)C(C)(C)NC(=O)[C@@H](N)Cc1c[nH]cn1)[C@@H](C)O)C(C)C)C(C)C)C(=O)N[C@@H](C)C(=O)N[C@@H](CC(N)=O)C(=O)N[C@H](C(N)=O)[C@@H](C)O [Peptide 9] (H-H[Aib]HGS[αMeF]TSDVSK[αMeF]LDSK([AEEA-AEEA-γGlu-C18 diacid])AARDFVQWIANT-NH2; N-terminus assumed) | 0.242 nM | 2.3 | 0.279 nM
CC[C@H](C)[C@H](NC(=O)[C@H](Cc1c[nH]c2ccccc12)NC(=O)[C@H](CCC(=O)O)NC(=O)[C@@H](NC(=O)[C@H](Cc1ccccc1)NC(=O)[C@H](CC(=O)O)NC(=O)[C@H](CCCNC(=N)N)NC(=O)[C@H](C)NC(=O)[C@H](C)NC(=O)[C@H](CCCCNC(=O)COCCOCCNC(=O)COCCOCCNC(=O)CC[C@H](NC(=O)CCCCCCCCCCCCCCCCC(=O)O)C(=O)O)NC(=O)[C@H](CO)NC(=O)[C@H](CC(=O)O)NC(=O)[C@H](CC(C)C)NC(=O)[C@](C)(Cc1ccccc1)NC(=O)[C@H](CCCCN)NC(=O)[C@H](CO)NC(=O)[C@@H](NC(=O)[C@H](CC(=O)O)NC(=O)[C@H](CO)NC(=O)[C@@H](NC(=O)[C@](C)(Cc1ccccc1)NC(=O)[C@H](CO)NC(=O)CNC(=O)[C@H](Cc1c[nH]cn1)NC(=O)C(C)(C)NC(=O)[C@@H](N)Cc1c[nH]cn1)[C@@H](C)O)C(C)C)C(C)C)C(=O)N[C@@H](C)C(=O)N[C@@H](CC(N)=O)C(=O)N[C@H](C(N)=O)[C@@H](C)O [Peptide 10] (H-H[Aib]HGS[αMeF]TSDVSK[αMeF]LDSK([AEEA-AEEA-γGlu-C18 diacid])AARDFVEWIANT-NH2; N-terminus assumed) | 0.658 nM | 1.1 | 0.377 nM
CC[C@H](C)[C@H](NC(=O)C(C)(C)NC(=O)[C@H](CCC(N)=O)NC(=O)[C@@H](NC(=O)[C@H](Cc1ccccc1)NC(=O)[C@H](CC(=O)O)NC(=O)[C@H](CCC(N)=O)NC(=O)[C@H](C)NC(=O)[C@H](C)NC(=O)[C@H](CCCCNC(=O)COCCOCCNC(=O)COCCOCCNC(=O)CC[C@H](NC(=O)CCCCCCCCCCCCCCCCC(=O)O)C(=O)O)NC(=O)[C@H](CO)NC(=O)[C@H](CC(=O)O)NC(=O)[C@H](CC(C)C)NC(=O)[C@](C)(Cc1ccccc1)NC(=O)[C@H](CCCCN)NC(=O)[C@H](CO)NC(=O)[C@@H](NC(=O)[C@H](CC(=O)O)NC(=O)[C@H](CO)NC(=O)[C@@H](NC(=O)[C@](C)(Cc1ccccc1)NC(=O)[C@H](CO)NC(=O)CNC(=O)[C@H](Cc1c[nH]cn1)NC(=O)C(C)(C)NC(=O)[C@@H](N)Cc1c[nH]cn1)[C@@H](C)O)C(C)C)C(C)C)C(=O)N[C@@H](C)C(=O)N[C@@H](CC(N)=O)C(=O)N[C@H](C(N)=O)[C@@H](C)O [Peptide 11] (H-H[Aib]HGS[αMeF]TSDVSK[αMeF]LDSK([AEEA-AEEA-γGlu-C18 diacid])AAQDFVQ[Aib]IANT-NH2) | 0.157 nM | 1.5 | 0.118 nM
CC[C@H](C)[C@H](NC(=O)C(C)(C)NC(=O)[C@H](CCC(N)=O)NC(=O)[C@@H](NC(=O)[C@H](Cc1ccccc1)NC(=O)[C@H](CC(=O)O)NC(=O)[C@H](CCCNC(=N)N)NC(=O)[C@H](C)NC(=O)[C@H](C)NC(=O)[C@H](CCCCNC(=O)COCCOCCNC(=O)COCCOCCNC(=O)CC[C@H](NC(=O)CCCCCCCCCCCCCCCCC(=O)O)C(=O)O)NC(=O)[C@H](CO)NC(=O)[C@H](CC(=O)O)NC(=O)[C@H](CC(C)C)NC(=O)[C@](C)(Cc1ccccc1)NC(=O)[C@H](CCCCN)NC(=O)[C@H](CO)NC(=O)[C@@H](NC(=O)[C@H](CC(=O)O)NC(=O)[C@H](CO)NC(=O)[C@@H](NC(=O)[C@](C)(Cc1ccccc1)NC(=O)[C@H](CO)NC(=O)CNC(=O)[C@H](Cc1c[nH]cn1)NC(=O)C(C)(C)NC(=O)[C@@H](N)Cc1c[nH]cn1)[C@@H](C)O)C(C)C)C(C)C)C(=O)N[C@@H](C)C(=O)N[C@@H](CC(N)=O)C(=O)N[C@H](C(N)=O)[C@@H](C)O [Peptide 12] (H-H[Aib]HGS[αMeF]TSDVSK[αMeF]LDSK([AEEA-AEEA-γGlu-C18 diacid])AARDFVQ[Aib]IANT-NH2; N-terminus assumed) | 0.0145 nM | 6.5 | 0.0477 nM
CC[C@H](C)[C@H](NC(=O)C(C)(C)NC(=O)[C@H](CCC(N)=O)NC(=O)[C@@H](NC(=O)[C@](C)(Cc1ccccc1)NC(=O)[C@H](CC(=O)O)NC(=O)[C@H](CCCNC(=N)N)NC(=O)[C@H](C)NC(=O)[C@H](C)NC(=O)[C@H](CCCCNC(=O)COCCOCCNC(=O)COCCOCCNC(=O)CC[C@H](NC(=O)CCCCCCCCCCCCCCCCC(=O)O)C(=O)O)NC(=O)[C@H](CO)NC(=O)[C@H](CC(=O)O)NC(=O)[C@H](CC(C)C)NC(=O)[C@](C)(Cc1ccccc1)NC(=O)[C@H](CCCCN)NC(=O)[C@H](CO)NC(=O)[C@@H](NC(=O)[C@H](CC(=O)O)NC(=O)[C@H](CO)NC(=O)[C@@H](NC(=O)[C@](C)(Cc1ccccc1)NC(=O)[C@H](CO)NC(=O)CNC(=O)[C@H](Cc1c[nH]cn1)NC(=O)C(C)(C)NC(=O)[C@@H](N)Cc1c[nH]cn1)[C@@H](C)O)C(C)C)C(C)C)C(=O)N[C@@H](C)C(=O)N[C@@H](CC(N)=O)C(=O)N[C@H](C(N)=O)[C@@H](C)O [Peptide 13] (H-H[Aib]HGS[αMeF]TSDVSK[αMeF]LDSK([AEEA-AEEA-γGlu-C18 diacid])AARD[αMeF]VQ[Aib]IANT-NH2; N-terminus assumed) | 0.0159 nM | 5.5 | 0.044 nM
CC[C@H](C)[C@H](NC(=O)C(C)(C)NC(=O)[C@H](CCC(N)=O)NC(=O)[C@@H](NC(=O)[C@](C)(Cc1ccccc1)NC(=O)[C@H](CC(=O)O)NC(=O)[C@H](CCCNC(=N)N)NC(=O)[C@H](C)NC(=O)[C@H](C)NC(=O)[C@H](CCCCNC(=O)COCCOCCNC(=O)COCCOCCNC(=O)CC[C@H](NC(=O)CC[C@H](NC(=O)CCCCCCCCCCCCCCCCCCC(=O)O)C(=O)O)C(=O)O)NC(=O)[C@H](CO)NC(=O)[C@H](CC(=O)O)NC(=O)[C@H](CC(C)C)NC(=O)[C@](C)(Cc1ccccc1)NC(=O)[C@H](CCCCN)NC(=O)[C@H](CO)NC(=O)[C@@H](NC(=O)[C@H](CC(=O)O)NC(=O)[C@H](CO)NC(=O)[C@@H](NC(=O)[C@](C)(Cc1ccccc1)NC(=O)[C@H](CO)NC(=O)CNC(=O)[C@H](Cc1c[nH]cn1)NC(=O)C(C)(C)NC(=O)[C@@H](N)Cc1c[nH]cn1)[C@@H](C)O)C(C)C)C(C)C)C(=O)N[C@@H](C)C(=O)N[C@@H](CC(N)=O)C(=O)N[C@H](C(N)=O)[C@@H](C)O [Peptide 14] (H-H[Aib]HGS[αMeF]TSDVSK[αMeF]LDSK([AEEA-AEEA-γGlu-γGlu-C20 diacid])AARD[αMeF]VQ[Aib]IANT-NH2; N-terminus assumed) | 0.0938 nM | 9.7 | 0.462 nM
CC[C@H](C)[C@H](NC(=O)C(C)(C)NC(=O)[C@H](C)NC(=O)[C@@H](NC(=O)[C@](C)(Cc1ccccc1)NC(=O)[C@H](CC(=O)O)NC(=O)[C@H](CCCNC(=N)N)NC(=O)[C@H](C)NC(=O)[C@H](C)NC(=O)[C@H](CCCCNC(=O)COCCOCCNC(=O)COCCOCCNC(=O)CC[C@H](NC(=O)CCCCCCCCCCCCCCCCC(=O)O)C(=O)O)NC(=O)[C@H](CO)NC(=O)[C@H](CC(=O)O)NC(=O)[C@H](CC(C)C)NC(=O)[C@](C)(Cc1ccccc1)NC(=O)[C@H](CCCCN)NC(=O)[C@H](CO)NC(=O)[C@@H](NC(=O)[C@H](CC(=O)O)NC(=O)[C@H](CO)NC(=O)[C@@H](NC(=O)[C@](C)(Cc1ccccc1)NC(=O)[C@H](CO)NC(=O)CNC(=O)[C@H](Cc1c[nH]cn1)NC(=O)C(C)(C)NC(=O)[C@@H](N)Cc1c[nH]cn1)[C@@H](C)O)C(C)C)[C@@H](C)CC)C(=O)N[C@@H](C)C(=O)N[C@@H](CC(N)=O)C(=O)N[C@H](C(N)=O)[C@@H](C)O [Peptide 16] (H-H[Aib]HGS[αMeF]TSDVSK[αMeF]LDSK([AEEA-AEEA-γGlu-C18 diacid])AARD[αMeF]IA[Aib]IANT-NH2; N-terminus assumed) | 0.033 nM | 6.3 | 0.105 nM
